# Assays:
# Rattus norvegicus = species on record: Rattus norvegicus; assay: Percent inhibition of binding to alpha2-delta subunit of rat calcium channel at 10 uM
# [1] = Binding affinity against alpha2-delta subunit of rat calcium channel
SMILES,inhibition (Rattus norvegicus),IC50 [1]
C[C@H]1CC[C@](CN)(CC(=O)O)CC1,17%,
C[C@@H]1C[C@H](C)C[C@](CN)(CC(=O)O)C1,38%,
C[C@@H]1C[C@H](C)C[C@@](CN)(CC(=O)O)C1,,143 nM
C[C@H]1CC[C@@](CN)(CC(=O)O)CC1,,420 nM
